PubChem BioAssay AID330 (DTP/NCI, 2004)
“And” between values parts separate entries of the source, which are not always exact repeats. Equal values may be shown once. Toxic doses and inconclusive results are not listed.

Test system: P388 leukemia ip, CD2F1 mice, survival T/C
Assay: NCI In Vivo Anticancer Drug Screen. Data for tumor model P388 Leukemia (intraperitoneal) in CD2F1 (CDF1) mice
Details: endpoint: median survival time, higher = longer survival
Method in brief: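 Mice carrying the transplanted tumor received test compound or vehicle. Survival was recorded in each group, and the value is the treated-group measurement divided by that of the vehicle-treated control group.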

[1] = dose: 50.0 mg/kg/injection, schedule: Q01DX005 (ip), vehicle: Klucel (hydroxypropylcellulose) (HPC)
[2] = dose: 100.0 mg/kg/injection, schedule: Q01DX005 (ip), vehicle: Klucel (hydroxypropylcellulose) (HPC)
[3] = dose: 200.0 mg/kg/injection, schedule: Q01DX005 (ip), vehicle: Klucel (hydroxypropylcellulose) (HPC)
[4] = dose: 25.0 mg/kg/injection, schedule: Q04DX003 (ip), vehicle: saline with Tween-80
[5] = dose: 50.0 mg/kg/injection, schedule: Q04DX003 (ip), vehicle: saline with Tween-80
[6] = dose: 50.0 mg/kg/injection, schedule: Q01DX009 (ip), vehicle: saline
[7] = dose: 60.0 mg/kg/injection, schedule: Q01DX005 (ip), vehicle: Klucel (hydroxypropylcellulose) (HPC)
[8] = dose: 120.0 mg/kg/injection, schedule: Q01DX005 (ip), vehicle: Klucel (hydroxypropylcellulose) (HPC)
[9] = dose: 240.0 mg/kg/injection, schedule: Q01DX005 (ip), vehicle: Klucel (hydroxypropylcellulose) (HPC)
[10] = dose: 50.0 mg/kg/injection, schedule: Q01DX009 (ip), vehicle: Klucel (hydroxypropylcellulose) (HPC)
[11] = dose: 100.0 mg/kg/injection, schedule: Q01DX009 (ip), vehicle: Klucel (hydroxypropylcellulose) (HPC)
[12] = dose: 200.0 mg/kg/injection, schedule: Q01DX009 (ip), vehicle: Klucel (hydroxypropylcellulose) (HPC)
[13] = dose: 100.0 mg/kg/injection, schedule: Q04DX002 (ip), vehicle: saline with Tween-80
[14] = dose: 200.0 mg/kg/injection, schedule: Q04DX002 (ip), vehicle: saline with Tween-80
[15] = dose: 60.0 mg/kg/injection, schedule: Q01DX005 (ip), vehicle: saline with Tween-80
[16] = dose: 120.0 mg/kg/injection, schedule: Q01DX005 (ip), vehicle: saline with Tween-80
[17] = dose: 240.0 mg/kg/injection, schedule: Q01DX005 (ip), vehicle: saline with Tween-80

O=C1C2=Cc3ccccc3CN2Cc2ccccc21
T/C (dose: 18.75 mg/kg/injection, schedule: Q01DX009 (ip), vehicle: saline with Tween-80): 111 % of control
T/C (dose: 37.5 mg/kg/injection, schedule: Q01DX009 (ip), vehicle: saline with Tween-80): 90 % of control

COC(=O)C(C)NC(=O)C(C)NC(=O)C(C)NC(C)=O (centres undefined)
T/C [1]: 102 % of control
T/C [2]: 94 % of control
T/C [3]: 100 % of control

CCN=C(N)Nc1ccc(NC(=O)c2ccc(C(=O)Nc3ccc(NC(N)=NCC)cc3)cc2)cc1
T/C (dose: 3.13 mg/kg/injection, schedule: Q01DX009 (ip), vehicle: saline with Tween-80): 163 % of control
T/C (dose: 3.13 mg/kg/injection, schedule: Q04DX003 (ip), vehicle: saline with Tween-80): 113 % of control
T/C (dose: 6.25 mg/kg/injection, schedule: Q01DX009 (ip), vehicle: saline with Tween-80): 168 % of control
T/C (dose: 6.25 mg/kg/injection, schedule: Q04DX003 (ip), vehicle: saline with Tween-80): 122 % of control
T/C (dose: 12.5 mg/kg/injection, schedule: Q01DX009 (ip), vehicle: saline with Tween-80): 109 % of control and 113 % of control
T/C [4]: 200 % of control
T/C [5]: 181 % of control

O=c1c(Cl)c(Cl)c(=O)c2sc3cc(Cl)ccc3[nH]c1=2
T/C [6]: 98 % of control
T/C (dose: 100.0 mg/kg/injection, schedule: Q01DX009 (ip), vehicle: saline): 102 % of control
T/C (dose: 200.0 mg/kg/injection, schedule: Q01DX009 (ip), vehicle: saline): 101 % of control

O=C(c1ccccc1)C(C(c1ccccc1)N1CCOCC1)N1CCOCC1 (centres undefined)
T/C (dose: 100.0 mg/kg/injection, schedule: Q01DX009 (ip), vehicle: saline with Tween-80): 94 % of control
T/C (dose: 200.0 mg/kg/injection, schedule: Q01DX009 (ip), vehicle: saline with Tween-80): 94 % of control
T/C (dose: 400.0 mg/kg/injection, schedule: Q01DX009 (ip), vehicle: saline with Tween-80): 94 % of control

O=C1CSC(c2cc([N+](=O)[O-])ccc2Cl)N1c1nncs1 (centres undefined)
T/C [7]: 108 % of control
T/C [8]: 105 % of control
T/C [9]: 98 % of control

CCCCC(=O)/C=C/c1ccc(Cl)c(Cl)c1
T/C [10]: 98 % of control
T/C [11]: 90 % of control
T/C [12]: 95 % of control

O=C(O)c1c(C(=O)O)c(C(=O)O)c(C(=O)O)c(C(=O)O)c1C(=O)O
T/C (dose: 25.0 mg/kg/injection, schedule: Q01DX009 (ip), vehicle: water): 111 % of control
T/C (dose: 50.0 mg/kg/injection, schedule: Q01DX009 (ip), vehicle: water): 106 % of control
T/C (dose: 100.0 mg/kg/injection, schedule: Q01DX009 (ip), vehicle: water): 109 % of control
T/C (dose: 200.0 mg/kg/injection, schedule: Q01DX009 (ip), vehicle: water): 101 % of control

Cc1ccc(S(=O)(=O)O/N=C(/CC/C(=N\OS(=O)(=O)c2ccc(C)cc2)c2ccccc2)c2ccccc2)cc1
T/C [13]: 95 % of control
T/C [14]: 115 % of control
T/C (dose: 400.0 mg/kg/injection, schedule: Q04DX002 (ip), vehicle: saline with Tween-80): 96 % of control

C/C=C\c1ccc(OC(=O)NC)c(OC)c1
T/C [15]: 100 % of control
T/C [16]: 104 % of control
T/C [17]: 100 % of control

COc1ccc(N2CCN(/C=C3\Cc4c(F)cccc4C3=O)CC2)cc1
T/C (dose: 100.0 mg/kg/injection, schedule: Q04DX003 (ip), vehicle: Klucel (hydroxypropylcellulose) (HPC)): 97 % of control
T/C (dose: 200.0 mg/kg/injection, schedule: Q04DX003 (ip), vehicle: Klucel (hydroxypropylcellulose) (HPC)): 103 % of control
T/C (dose: 400.0 mg/kg/injection, schedule: Q04DX003 (ip), vehicle: Klucel (hydroxypropylcellulose) (HPC)): 101 % of control

Cc1c2ncccc2c(C)c2c1[nH]c1ccccc12
T/C (dose: 25.0 mg/kg/injection, schedule: Q04DX002 (ip), vehicle: saline with Tween-80): 100 % of control
T/C (dose: 50.0 mg/kg/injection, schedule: Q04DX002 (ip), vehicle: saline with Tween-80): 91 % of control
T/C [13]: 98 % of control
T/C [14]: 89 % of control

Cc1cc(C)c2c(=O)n(-c3ccccc3C)c(=S)n(-c3ccccc3C)c2n1
T/C [15]: 100 % of control
T/C [16]: 86 % of control

O=C(c1cccs1)C1NO[N+]([O-])=C1c1cccs1 (centres undefined)
T/C (dose: 6.25 mg/kg/injection, schedule: Q01DX005 (ip), vehicle: saline with Tween-80): 100 % of control
T/C (dose: 12.5 mg/kg/injection, schedule: Q01DX005 (ip), vehicle: saline with Tween-80): 106 % of control
T/C (dose: 25.0 mg/kg/injection, schedule: Q01DX005 (ip), vehicle: saline with Tween-80): 115 % of control

OCC1CCC(O)C=C2CCCC21 (centres undefined)
T/C [7]: 94 % of control
T/C [8]: 103 % of control
T/C [9]: 105 % of control

CCCCCCCCCCCC(=O)C(=O)c1ccc(O)c(C)c1O
T/C [10]: 107 % of control
T/C [11]: 105 % of control
T/C [12]: 110 % of control

O=C(O)C(CS)NC1CC(=O)N(Cc2ccccc2)C1=O (centres undefined)
T/C [1]: 110 % of control
T/C [2]: 103 % of control
T/C [3]: 103 % of control

CCC1(c2ccccc2)C(C#N)C(=O)NC(=O)C1C#N (centres undefined)
T/C [15]: 106 % of control
T/C [16]: 99 % of control
T/C [17]: 101 % of control

NC(=O)N/N=C1/CCC(OC(=O)c2ccccc2)CC1CC(=O)O (centres undefined)
T/C (dose: 50.0 mg/kg/injection, schedule: Q01DX005 (ip), vehicle: saline with Tween-80): 100 % of control
T/C (dose: 100.0 mg/kg/injection, schedule: Q01DX005 (ip), vehicle: saline with Tween-80): 100 % of control
T/C (dose: 200.0 mg/kg/injection, schedule: Q01DX005 (ip), vehicle: saline with Tween-80): 100 % of control

Cc1cc2nnn(C3OC(CO)C(O)C3O)c2cc1C (centres undefined)
T/C [1]: 105 % of control
T/C [2]: 107 % of control
T/C [3]: 104 % of control

COc1ccc(OC)c(C(/C=N/O)OC)c1 (centres undefined)
T/C [4]: 98 % of control and 100 % of control
T/C [5]: 98 % of control and 94 % of control
T/C (dose: 100.0 mg/kg/injection, schedule: Q04DX003 (ip), vehicle: saline with Tween-80): 99 % of control and 87 % of control
T/C (dose: 200.0 mg/kg/injection, schedule: Q04DX003 (ip), vehicle: saline with Tween-80): 103 % of control and 94 % of control
T/C (dose: 400.0 mg/kg/injection, schedule: Q04DX003 (ip), vehicle: saline with Tween-80): 99 % of control

COc1cc(C=C2C(=O)C=CC2=O)ccc1O
T/C (dose: 12.5 mg/kg/injection, schedule: Q04DX002 (ip), vehicle: saline): 92 % of control
T/C (dose: 25.0 mg/kg/injection, schedule: Q04DX002 (ip), vehicle: saline): 96 % of control

COC(=O)C(=O)c1c(-c2ccc(O)c(OC)c2)[nH]c2[nH]n(-c3ccccc3)c(=O)c2c1=O
T/C [15]: 100 % of control
T/C [16]: 109 % of control
T/C [17]: 88 % of control

CC(=O)Nc1nc([N+](=O)[O-])c(C(C)C)s1
T/C (dose: 100.0 mg/kg/injection, schedule: Q01DX001 (ip), vehicle: saline with Tween-80): 98 % of control
T/C (dose: 200.0 mg/kg/injection, schedule: Q01DX001 (ip), vehicle: saline with Tween-80): 97 % of control
T/C (dose: 400.0 mg/kg/injection, schedule: Q01DX001 (ip), vehicle: saline with Tween-80): 93 % of control

OC(Nc1nccs1)C(F)(F)F (centres undefined)
T/C (dose: 12.5 mg/kg/injection, schedule: Q01DX009 (ip), vehicle: saline): 99 % of control
T/C (dose: 25.0 mg/kg/injection, schedule: Q01DX009 (ip), vehicle: saline): 100 % of control
T/C (dose: 50.0 mg/kg/injection, schedule: Q01DX009 (ip), vehicle: saline with Tween-80): 95 % of control
T/C [6]: 101 % of control

O=S(=O)(NCc1ccccc1)c1ccccc1
T/C (dose: 12.5 mg/kg/injection, schedule: Q01DX009 (ip), vehicle: Klucel (hydroxypropylcellulose) (HPC)): 104 % of control
T/C (dose: 25.0 mg/kg/injection, schedule: Q01DX009 (ip), vehicle: Klucel (hydroxypropylcellulose) (HPC)): 94 % of control
T/C [10]: 95 % of control
T/C [11]: 104 % of control
T/C [12]: 106 % of control

CN(C)C[C@@H]1OCCOCCO[C@@H](CN(C)C)[C@H](CN(C)C)OCCOCCO[C@H]1CN(C)C
T/C (dose: 50.0 mg/kg/injection, schedule: Q01DX005 (ip), vehicle: saline): 98 % of control
T/C (dose: 100.0 mg/kg/injection, schedule: Q01DX005 (ip), vehicle: saline): 88 % of control
T/C (dose: 200.0 mg/kg/injection, schedule: Q01DX005 (ip), vehicle: saline): 90 % of control
